Experimental data taken from patent publication US7759399B2, “Pharmaceutical compositions” (priority 2002, dated 2010).

What was measured:
uninfected 37RC cells = details: monkey
NF-κB [1] = details: same concentration (125-500 μM); cited from earlier work
HSF1 = details: concentration of 125-500 μM; cited from earlier work
Sendai virus = Sendai virus replication in 37RC cells (virus yield by HAU titration); assay type: cell-based; details: Respirovirus muris, 5 HAU/10^5 cells, virus yield at 24 hours after infection, read-out: ID50 (50% inhibitory dose/concentration), Sendai virus yield
[2] = doses from 30 μg/kg/min; cited from earlier work
37RC cells = test: in vitro; assay type: cell-based; details: 24 h treatment, read-out: LC50 (50% lethal dose/concentration), Neutral Red
Experimental: Cell viability was determined using the Neutral Red assay. 37RC cells were seeded at density of 6×10^4 cells/well in 24-well plates and incubated for 24 h. Confluent 37RC monolayers were treated with the test compounds at different dilutions for 24 h at 37° C. After incubation, the medium was removed and the cells were incubated with RPMI medium containing 40 μg/ml Neutral Red dye (500 μl/well). After 2 h at 37° C., the monolayers were washed with phosphate-buffered saline (PBS) and then with a solution containing 1% CaCl2 and 0.5% formaldehyde. After washing, a solution containing 1% acetic acid/50% ethanol was added to the monolayers (250 μl/well). After 10 min at room temperature, the absorbance was determined with a microplate reader (Victor 1420, Wallac) at 540 nm.

NF-κB [3] = test: NF-κB-dependent luciferase reporter gene assay, HeLa κB-transformed cells, TPA stimulated; assay type: cell-based; details: 8 h treatment, TPA 25 ng/ml 2 h after exposure, read-out: NF-κB, IC50 (concentration at which the compound halved the NF-κB activity)
Experimental: Method: HeLa cell clone 13B, stably transfected with a luciferase reporter plasmid controlled by the human hsp70 promoter, and HeLa κB-transformed cells, stably transfected with a luciferase reporter plasmid controlled by a synthetic NF-κB-STM construct, were maintained in DMEM medium supplemented with 10% FBS, L-glutamine (2 mM) and G418 (250 μg/ml) at 37° C. in a 5% CO2 humidified atmosphere.
Cells were seeded at a density of 4×10^4 cells/well in 96-well plates. After 18-20 h, the medium was removed and cells were treated for 8 h with the test compounds (100 μl) at the appropriate dilutions in serum-free medium. For the NF-κB-dependent reporter gene assay, cells were stimulated with TPA (25 ng/ml) 2 h after exposure to the compounds.
After incubation, the medium was removed and cells were lysed in 10 μl of lysis buffer. The luciferase activity was determined by adding 100 μl of substrate and measuring the release of light using a Victor 1420 microplate reader (Wallac, Finland).
The fragment Kpn I-BamH I from the pGL3 basic vector containing the luciferase gene (PROMEGA) was inserted in the pcDNA3 vector (INVITROGEN) digested with Bgl II-KpnI. (This digestion removes the CMV-promoter from pcDNA3.) The resulting new vector was digested with Kpn I-Hind III and a promoter containing a ‘5xNF-κB binding sites—TATA box’ sequence was inserted upstream of the luciferase gene. This vector has been named STM.
To obtain stable HeLa cell lines expressing the luciferase gene under the control of NF-κB, HeLa cells were transfected (using lipofectamine plus GIBCO) with the STM-Pvu I linearized vector, and selected for 20 days with G418 (800 μg/ml). After selection, the resistant HeLa cell pool was controlled (in quadruplicate samples) for luciferase activity after stimulation with TNFα, IL-1 and TPA.
The AC200/μM for HSF is the concentration at which the tested compound doubled the HSF activity in this assay. The IC50/μM for NF-κB is the concentration at which the tested compound halved the NF-κB activity in this assay.

Compound | TD100 (dose or concentration at which the compound was 100% toxic to uninfected cells) (uninfected 37RC cells) [µM] | block of NF-κB activation by chemical or physiological inducers, result in words (NF-κB [1]) | HSF1 activation, result in words (HSF1) | IC50 (Sendai virus) [µM] | effect on blood pressure [2] | CC50 (37RC cells) [µM] | IC50 (NF-κB [3]) [µM]
O=C1C=CCC1 [CTC-1, cyclopent-2-en-1-one, reference compound] | >500 | able to block NF-κB activation | able to activate HSF1 | 90 |  |  | 
CCCCC[C@H](O)/C=C/[C@H]1C=CC(=O)[C@@H]1CCCCCCC(=O)O [Prostaglandin A1] |  |  |  |  | dose-dependant falls in blood pressure |  | 
CC(C)(C)C(=O)O[C@H]1[C@H](Sc2ccc3ccccc3c2)CC(=O)C1(C)C (stereo in doubt) [CTM-192, 2,2-dimethylpropionic acid (1R,5R)-2,2-dimethyl-5-(naphthalen-2-ylsulfanyl)-3-oxocyclopentyl ester] | 50 |  |  |  |  | 22 | 28
